Assays:
GSK-3β [1] = biological target: T1, GSK-3β (Homo sapiens, UniProt P49841); assay: MicroScale Thermophoresis (MST) binding to fluorescently labeled GSK-3β; set-up: made in house; host or cells: Sf9 cells; conditions: for MST binding check, displacement assay: preincubation with 3 mM AMP-PNP, data not shown
Description: MicroScale Thermophoresis (MST) experiments were conducted in triplicate on a Monolith NT.115 Pico system (NanoTemper Technologies, Munich, Germany).
The MST technique was used both for hit binding and for affinity (kd) determination.
GSK-3β was labeled with the His-tag RED-tris-NTA label 2nd generation (Nanotemper Technologies) following Nanotemper technology protocol. The 100 nM stock labeled protein solution was used at 20 nM concentration to roughly start from 7000 fluorescence counts in each screening experiment.
GSK-3β was labelled also using RED-NHS ammine dye (Nanotemper Technologies) following the manufacturer’s protocol. The obtained ammine-labeled protein was used at 20 nM concentration to roughly start the experiments from 6000 fluorescence counts.
Binding tests were performed on eight capillaries with a constant concentration of the labeled protein (20 nM), to detect the effect induced by the compounds on the fluorescence signal (in the presence or absence of 3 mM AMP-PNP). Protein in assay buffer in the presence of 5% DMSO was the negative control.
Assay buffer: Phosphate buffer 0.1 M pH 7.2, 5 mM MgCl2, 0.001% Tween80, 0.1% PEG8000. Experiments were performed in triplicates. Data elaboration and plots were performed using MO.Control Nanotemper software.

p70S6K = biological target: T2, p70S6K (Homo sapiens, UniProt P23443); assay: Eurofins Kinase Diversity Panel, p70S6K; format: biochemical; conditions: 20 µM compound; ATP at Km ± 15 µM; read-out: inhibitory effect on p70S6K
T2 construct: purchased Eurofins (Kinase Diversity Panel service)
T2 sequence (P23443 whole entry): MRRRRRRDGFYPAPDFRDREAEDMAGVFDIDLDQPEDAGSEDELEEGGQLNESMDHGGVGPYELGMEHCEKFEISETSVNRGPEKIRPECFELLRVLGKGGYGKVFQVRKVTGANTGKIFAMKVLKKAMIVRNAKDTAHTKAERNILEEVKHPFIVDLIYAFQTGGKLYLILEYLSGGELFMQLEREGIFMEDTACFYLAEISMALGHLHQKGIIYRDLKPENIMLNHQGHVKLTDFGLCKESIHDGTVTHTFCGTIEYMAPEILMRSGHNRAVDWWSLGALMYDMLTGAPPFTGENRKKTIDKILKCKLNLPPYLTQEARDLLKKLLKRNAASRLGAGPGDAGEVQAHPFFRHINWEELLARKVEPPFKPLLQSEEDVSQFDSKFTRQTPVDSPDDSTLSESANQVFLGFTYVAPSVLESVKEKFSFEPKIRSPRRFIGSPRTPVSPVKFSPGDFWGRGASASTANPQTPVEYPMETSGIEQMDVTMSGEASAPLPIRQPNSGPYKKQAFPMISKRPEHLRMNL
Description: To further characterize the inhibitory activity of the two selected fragments, the selectivity of G5 and G12 towards a panel of 58 kinases of the humane proteome was evaluated using the “Kinase screening and profiling” service of Eurofins, Luxembourg (Kinase Diversity Panel). […] Results are reported in Supplementary Figures S2 and S3.

GSK-3β [2] = biological target: T1, GSK-3β; assay: Thermal shift assay with SYPRO Orange; format: binding; set-up: made in house; host or cells: Sf9 cells; conditions: GSK-3β 5 μM; normalized to DMSO effect
Description: Given the poor inhibitory activity of compounds B3 and E2, only G5 and G12 were selected for further biophysical and structural investigations. […] A Tm increase of 3.2 °C and 2.5 °C was observed upon binding of G5 and G12, respectively. Reported effects were compared and normalized to the effect induced by DMSO alone on GSK-3β denaturation. The same experiments were also performed in the presence of AMP-PNP to unravel a possible effect of this molecule on protein denaturation.
Thermal shift experiments were conducted in technical triplicates and recorded with a ViiA7^TM real-time PCR instrument. The analysis protocol of Partch and colleagues developed for fast stability screening of buffers and interactors for recombinant proteins was followed, [42]. Briefly, the recombinant protein GSK-3β at a final concentration of 5 μM was mixed with the dye SYPRO Orange (2× final concentrated) in the selected assay buffer (NaCl 300 mM, Hepes pH 7.5 20 mM, MgCl2 5 mM, DTT 1 mM) and incubated with hit compounds at two different concentrations, 200 and 500 μM. Experiments were also performed on GSK-3β also in the presence of AMP-PNP at a final concentration of 200 μM. […]
Output data were collected and analyzed with Excel software and Graphpad Prism 7.

GSK-3β [3] = biological target: T1, GSK-3β; assay: LANCE Ultra TR-FRET GSK-3β kinase inhibition assay (ULight-GS phosphorylation); format: biochemical; conditions: 1 µM ATP, 50 nM ULight-GS; for inhibition at 1 µM: 1 μM compound; for inhibition at 1 µM / inhibition at 5 µM / inhibition at 50 µM / inhibition at 100 µM: mean ± SD; for inhibition at 5 µM: 5 μM compound; for inhibition at 50 µM: 50 μM compound; for inhibition at 100 µM: 100 μM compound; for IC50: dose-response 30 nM to 200 μM
Description: To assess if the identified GSK-3β binders were also able to affect kinase activity, the inhibitory activity of the four identified hit compounds was tested at four concentrations (1-5-50-100 μM) using the LANCE® Ultra (Perkin Elmer, Waltham, MA, USA) time-resolved fluorescence resonance energy transfer (TR-FRET) assay. The assay measures the ability of GSK-3β to phosphorylate a specific substrate, human Muscle Glycogen Synthase (ULight-GS ([…]/pSer657)), in the presence and absence of the identified ligands. […] Specifically, IC50 values were (14.81 ± 0.55) μM and (15.25 ± 1.34) μ[…] and G12, respectively (Figure 5). The GSK-3β kinase assay was run in 384 well microplates (OptiPlate^TM-384, White, Perkin Elmer) with a total reaction volume of 20 μL. The inhibitory potency against human recombinant GSK-3β was evaluated using the LANCE® Ultra (Perkin Elmer) time-resolved fluorescence resonance energy transfer (TR-FRET) by measuring the phosphorylation of the specific substrate, human Muscle Glycogen Synthase (ULight-GS ([…]/pSer657)), according to the manufacturer's instructions. […] The reaction was initiated by adding 50 nM of the substrate ULight-[…] and 1 μM ATP. The mixture was incubated for 1 h at 23 °C. Afterward, the reaction was stopped by adding 8 mM EDTA. After 5 min, the anti-phospho-GS antibody labeled with europium chelate was added. 1 h later, the kinase reaction was monitored by irradiation at 320 nm, and the fluorescence was measured at 615 and 665 nm, using EnVision 2014 Multilabel Reader (PerkinElmer). The calculated signal ratio at 665/615 nm was proportional to the extent of ULight-GS phosphorylation. The compounds were screened at four concentrations (1-5-50-100 μM). For selected compounds, dose-response curves, ranging from 30 nM up to 200 μM, were performed. Dose-response curves were run in three independent experiments, each performed in three technical replicates. IC50 values (concentrations causing half-maximal response or enzyme inhibition) were determined by non-linear regression analysis of the Log [concentration]/response curves generated with mean replicate values using a four parameter Hill equation curve fitting with GraphPad Prism 8 (GraphPad Software Inc., San Diego, CA, USA).

T1 sequence (P49841 whole entry): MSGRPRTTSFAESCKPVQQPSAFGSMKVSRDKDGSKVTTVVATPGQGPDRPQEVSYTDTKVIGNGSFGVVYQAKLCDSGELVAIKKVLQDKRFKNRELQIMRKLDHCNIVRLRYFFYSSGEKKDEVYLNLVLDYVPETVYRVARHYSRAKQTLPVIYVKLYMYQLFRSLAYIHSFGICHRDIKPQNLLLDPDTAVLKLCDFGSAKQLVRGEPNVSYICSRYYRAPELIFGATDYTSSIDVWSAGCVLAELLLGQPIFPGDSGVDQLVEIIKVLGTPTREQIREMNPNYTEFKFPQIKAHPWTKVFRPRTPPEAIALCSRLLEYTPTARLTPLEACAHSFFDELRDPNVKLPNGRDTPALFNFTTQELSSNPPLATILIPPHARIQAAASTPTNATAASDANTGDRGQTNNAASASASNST

| SMILES | MST binding check, displacement assay (GSK-3β [1]) | inhibition at 20 µM (p70S6K) [%] | Tm increase upon binding (GSK-3β [2]) [°C] | inhibition at 1 µM (GSK-3β [3]) [%] | inhibition at 5 µM (GSK-3β [3]) [%] | inhibition at 50 µM (GSK-3β [3]) [%] | inhibition at 100 µM (GSK-3β [3]) [%] | IC50 (GSK-3β [3]) [µM] | Kd (GSK-3β [1]; complete binding curve, average of three experiments ± SD, read-out: affinity parameter (kd), MST) [µM] |
| --- | --- | --- | --- | --- | --- | --- | --- | --- | --- |
| CS(=O)(=O)N1CC(c2nc(N)ncc2-c2ccc(F)cc2)C1 [G5] | maintained their ability to bind GSK-3β | 26 | 3.2 | 0.3 ± 0.1 | 13.4 ± 2 | 69.4 ± 2 | > 80 | 14.8 ± 0.55 |  |
| O=C(Nc1ccccn1)C1CCN(C(=O)CCc2ccccc2F)C1 (centres unmarked) [G12] | maintained their ability to bind GSK-3β | 15 | 2.5 | 8.5 ± 0.1 | 15.2 ± 2.7 | 71.4 ± 1.7 | > 80 | 15.2 ± 1.34 | 66.5 ± 31.8 |
